This assay has as its target T1, GIPR (CHO-K1-hGIPR cells) (Homo sapiens, UniProt P48546).
T1 construct: host or cells: CHO-K1
T1 sequence (P48546 22-466): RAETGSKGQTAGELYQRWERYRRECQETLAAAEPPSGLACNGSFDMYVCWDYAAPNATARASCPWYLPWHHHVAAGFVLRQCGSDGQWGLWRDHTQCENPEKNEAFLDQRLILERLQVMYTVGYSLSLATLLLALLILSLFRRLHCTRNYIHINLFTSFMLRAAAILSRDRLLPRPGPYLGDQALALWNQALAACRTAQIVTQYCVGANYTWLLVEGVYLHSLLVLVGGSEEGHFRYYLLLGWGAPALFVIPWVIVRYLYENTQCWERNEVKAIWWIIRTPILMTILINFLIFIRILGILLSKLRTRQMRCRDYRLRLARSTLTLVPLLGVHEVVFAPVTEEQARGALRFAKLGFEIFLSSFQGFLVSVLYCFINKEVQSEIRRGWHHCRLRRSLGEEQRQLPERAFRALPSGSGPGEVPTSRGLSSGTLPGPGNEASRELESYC
Kind of assay: FACS binding assay. The following applies: competition with 20 nM GIP-057, 4° C., 1 hour, read-out: pIC50 Category (converted). The method in brief:
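Read-out: flow cytometric median fluorescence intensity, APC/Cy5 channel, plotted vs peptide conc.; 4PL fit → EC50/pEC50 or IC50/pIC50. Cells: CHO-K1-hGIPR, Accutase-detached, 500.000/mL in PBS + 1% FCS. Detection: APC-streptavidin 1 μg/mL, 30 min, on ice.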

*1 amine or outer side, *2 acyl side, *3 side chain or, on linkers, in order; H or OH if unused. Where a SMILES comes first, the peptide text is derived from it. Bridges are numbered along the chain shown (N, C = ends). [ ]: non-standard residue; d: D form. The star is where a group is joined. X3 = O=C(O)CN1CCN(CC(=O)O)CCN(CC(=O)NCCCOCCOCCOCCCN*)CCN(CC(=O)O)CC1; NH(1-deoxy-D-glucityl) = OC[C@@H](O)[C@@H](O)[C@H](O)[C@@H](O)CN*; Pro(trans-4-NH2) = O=C([C@@H]1C[C@@H](N[*:3])CN1[*:1])[*:2]; DOTA = O=C(O)CN1CCN(CC(=O)O)CCN(CC(=O)*)CCN(CC(=O)O)CC1; Trp(5-Cl) = N[C@@H](Cc1c[nH]c2ccc(Cl)cc12)C(=O)O; Pyridine(2,6-diCH2) = c1cc(C[*:1])nc(C[*:2])c1; Pro(4R-NH2) = N[C@H]1CN[C@H](C(=O)O)C1; Glutaryl = O=C(CCCC(=O)[*:2])[*:1]; X7 = c1cc(CSCCN[*:2])cc(C[*:1])c1; Hyp = O=C(O)[C@@H]1C[C@@H](O)CN1; X1 = O=C(CN1CCC(N[*:1])CC1)[*:2]; Suc = O=C(CCC(=O)[*:2])[*:1]; hSer = N[C@@H](CCO)C(=O)O; Api = NC1(C(=O)O)CCNCC1; Thp = NC1(C(=O)O)CCOCC1 Where only a bound is given, the exact number is not on record here.

These results are taken from patent US20250296971A1, “GASTRIC INHIBITORY PEPTIDE RECEPTOR LIGANDS” (priority 2021, published 2025).

With `CC[C@H](C)[C@@H]1NC(=O)[C@H](CC(C)C)NC(=O)C2(CCN(C(=O)CN3CCN(CC(=O)O)CCN(CC(=O)O)CCN(CC(=O)O)CC3)CC2)NC(=O)[C@@H](NC(=O)[C@@H](CC(C)C)NC(=O)[C@H](CCC(=O)O)NC(=O)[C@@H]2C[C@@H](N)CN2C(=O)[C@H](Cc2c[nH]c3ccc(Cl)cc23)NC(=O)[C@H](Cc2c[nH]c3ccccc23)NC(=O)[C@H](CCO)NC(=O)CN2CCC(NC(=O)CCCC(=O)NC[C@H](O)[C@@H](O)[C@H](O)[C@H](O)CO)CC2)CSCc2cccc(n2)CSC[C@@H](C(=O)NC2CCN(CC(=O)N[C@H](CCC(=O)NC[C@H](O)[C@@H](O)[C@H](O)[C@H](O)CO)C(N)=O)CC2)NC1=O` [GIP-050, AGLU-Glutar-APAc-Hse-Trp-5Clw-Tap-Glu-leu-[Cys(2Lut)-Apc(DOTA)-Leu-Ile-Cys]-APAc-glu(AGLU)-NH] ({NH(1-deoxy-D-glucityl)-Glutaryl}-[X1][hSer]W[Trp(5-Cl)][Pro(4R-NH2)]E[dL]C[Api](DOTA)LIC[X1][dE](NH(1-deoxy-D-glucityl))-NH2; linker 8-12 via Pyridine(2,6-diCH2)), the IC50 was 10 to 79.4 nM.
Then `CC[C@H](C)[C@@H]1NC(=O)[C@H](CC(C)C)NC(=O)C2(CCN(C(=O)CN3CCN(CC(=O)O)CCN(CC(=O)O)CCN(CC(=O)O)CC3)CC2)NC(=O)[C@@H](NC(=O)[C@@H](CC(C)C)NC(=O)[C@H](CCC(=O)O)NC(=O)[C@@H]2C[C@@H](N)CN2C(=O)[C@H](Cc2c[nH]c3ccc(Cl)cc23)NC(=O)[C@H](Cc2c[nH]c3ccccc23)NC(=O)[C@H](CC(=O)O)NC(=O)CCCC(=O)NC[C@H](O)[C@@H](O)[C@H](O)[C@H](O)CO)CSCc2cccc(n2)CSC[C@@H](C(=O)NC2CCN(CC(=O)N[C@H](CCC(=O)NC[C@H](O)[C@@H](O)[C@H](O)[C@H](O)CO)C(N)=O)CC2)NC1=O` [GIP-051, AGLU-Glutar-Asp-Trp-5Clw-Tap-Glu-leu-[cys(2Lut)-Apc(DOTA)-Leu-Ile-Cys]-APAc-glu(AGLU)-NH2] ({NH(1-deoxy-D-glucityl)-Glutaryl}-DW[Trp(5-Cl)][Pro(4R-NH2)]E[dL]C[Api](DOTA)LIC[X1][dE](NH(1-deoxy-D-glucityl))-NH2; linker 7-11 via Pyridine(2,6-diCH2)), with 10 to 79.4 nM.
For the molecule `CC[C@H](C)[C@@H]1NC(=O)[C@H](CC(C)C)NC(=O)C2(CCN(C(=O)CN3CCN(CC(=O)O)CCN(CC(=O)O)CCN(CC(=O)O)CC3)CC2)NC(=O)[C@@H](NC(=O)[C@@H](CC(C)C)NC(=O)[C@H](CCC(=O)O)NC(=O)[C@@H]2C[C@@H](N)CN2C(=O)[C@H](Cc2c[nH]c3ccc(Cl)cc23)NC(=O)[C@H](Cc2c[nH]c3ccccc23)NC(=O)[C@H](CC(=O)O)NC(=O)CCCC(=O)NC[C@H](O)[C@@H](O)[C@H](O)[C@H](O)CO)CSCc2cccc(n2)CSC[C@@H](C(=O)NC2CCN(CC(=O)N[C@H](CCC(=O)NC[C@H](O)[C@@H](O)[C@H](O)[C@H](O)CO)C(N)=O)CC2)NC1=O` [GIP-052, AGLU-Glutar-Asp-Trp-5Clw-Tap-Glu-leu-[cys(2Lut)-Apc(DOTA)-Leu-Ile-cys]-APAc-glu(AGLU)-NH2] ({NH(1-deoxy-D-glucityl)-Glutaryl}-DW[Trp(5-Cl)][Pro(4R-NH2)]E[dL]C[Api](DOTA)LIC[X1][dE](NH(1-deoxy-D-glucityl))-NH2; linker 7-11 via Pyridine(2,6-diCH2)), the IC50 was 10 to 79.4 nM.
Take `CC[C@H](C)[C@@H]1NC(=O)[C@H](CC(C)C)NC(=O)C2(CCN(C(=O)CN3CCN(CC(=O)O)CCN(CC(=O)O)CCN(CC(=O)O)CC3)CC2)NC(=O)[C@@H](NC(=O)[C@@H](CC(C)C)NC(=O)[C@H](CCC(=O)O)NC(=O)[C@@H]2CCCN2C(=O)[C@H](Cc2c[nH]c3ccc(Cl)cc23)NC(=O)[C@H](Cc2c[nH]c3ccccc23)NC(=O)[C@H](CC(=O)O)NC(=O)CCC(=O)NCCCOCCOCCOCCCNC(=O)CN2CCN(CC(=O)O)CCN(CC(=O)O)CCN(CC(=O)O)CC2)CSCc2cccc(c2)CSCCNC1=O` [GIP-053, DOTA-Ttds-Asp-Trp-5Clw-Pro-Glu-leu-[Cys(3MeBn)-Apc(DOTA)-Leu-Ile-AET]] ({X3-Suc}-DW[Trp(5-Cl)]PE[dL]C[Api](DOTA)LI; linker 7-C via X7): the IC50 was less than 10 nM.
Then `CC[C@H](C)[C@@H]1NC(=O)[C@H](CC(C)C)NC(=O)C2(CCOCC2)NC(=O)[C@@H](NC(=O)[C@@H](CC(C)C)NC(=O)[C@H](CCC(=O)O)NC(=O)[C@@H]2C[C@@H](O)CN2C(=O)[C@H](Cc2c[nH]c3ccc(Cl)cc23)NC(=O)[C@H](Cc2c[nH]c3ccccc23)NC(=O)[C@H](CC(=O)O)NC(=O)CCC(=O)NCCCOCCOCCOCCCNC(=O)CN2CCN(CC(=O)O)CCN(CC(=O)O)CCN(CC(=O)O)CC2)CSCc2cccc(n2)CSC[C@@H](C(=O)N[C@@H](CCCCNC(=O)CN2CCN(CC(=O)O)CCN(CC(=O)O)CCN(CC(=O)O)CC2)C(N)=O)NC1=O` [GIP-054, DOTA-Ttds-Asp-Trp-5Clw-Hyp-Glu-leu-[Cys(2Lut)-Thp-Leu-Ile-Cys]-Lys(DOTA)-NH2] ({X3-Suc}-DW[Trp(5-Cl)][Hyp]E[dL]C[Thp]LICK(DOTA)-NH2; linker 7-11 via Pyridine(2,6-diCH2)), with less than 10 nM; and `CC[C@H](C)[C@@H]1NC(=O)[C@H](CC(C)C)NC(=O)C2(CCN(C(=O)CN3CCN(CC(=O)O)CCN(CC(=O)O)CCN(CC(=O)O)CC3)CC2)NC(=O)[C@@H](NC(=O)[C@@H](CC(C)C)NC(=O)[C@H](CCC(=O)O)NC(=O)[C@@H]2C[C@@H](O)CN2C(=O)[C@H](Cc2c[nH]c3ccc(Cl)cc23)NC(=O)[C@H](Cc2c[nH]c3ccccc23)NC(=O)[C@H](CC(=O)O)NC(=O)CCC(=O)NCCCOCCOCCOCCCNC(=O)CN2CCN(CC(=O)O)CCN(CC(=O)O)CCN(CC(=O)O)CC2)CSCc2cccc(n2)CSC[C@@H](C(=O)N[C@@H](CCCCNC(=O)CN2CCN(CC(=O)O)CCN(CC(=O)O)CCN(CC(=O)O)CC2)C(N)=O)NC1=O` [GIP-055, DOTA-Ttds-Asp-Trp-5Clw-Hyp-Glu-leu-[Cys(2Lut)-Apc(DOTA)-Leu-Ile-Cys]-Lys(DOTA)-NH2] ({X3-Suc}-DW[Trp(5-Cl)][Hyp]E[dL]C[Api](DOTA)LICK(DOTA)-NH2; linker 7-11 via Pyridine(2,6-diCH2)), with less than 10 nM.
For `CC[C@H](C)[C@@H]1NC(=O)[C@H](CC(C)C)NC(=O)C2(CCN(C(=O)CN3CCN(CC(=O)O)CCN(CC(=O)O)CCN(CC(=O)O)CC3)CC2)NC(=O)[C@@H](NC(=O)[C@@H](CC(C)C)NC(=O)[C@H](CCC(=O)O)NC(=O)[C@@H]2C[C@@H](NC(=O)CN3CCN(CC(=O)O)CCN(CC(=O)O)CCN(CC(=O)O)CC3)CN2C(=O)[C@H](Cc2c[nH]c3ccc(Cl)cc23)NC(=O)[C@H](Cc2c[nH]c3ccccc23)NC(=O)[C@H](CC(=O)O)NC(=O)CCC(=O)NCCCOCCOCCOCCCNC(=O)CN2CCN(CC(=O)O)CCN(CC(=O)O)CCN(CC(=O)O)CC2)CSCc2cccc(n2)CSC[C@@H](C(=O)N[C@@H](CCCCNC(=O)CN2CCN(CC(=O)O)CCN(CC(=O)O)CCN(CC(=O)O)CC2)C(N)=O)NC1=O` [GIP-056, DOTA-Ttds-Asp-Trp-5Clw-Tap(DOTA)-Glu-leu-[Cys(2Lut)-Apc(DOTA)-Leu-Ile-Cys]-Lys(DOTA)-NH2] ({X3-Suc}-DW[Trp(5-Cl)][Pro(trans-4-NH2)](DOTA)E[dL]C[Api](DOTA)LICK(DOTA)-NH2; linker 7-11 via Pyridine(2,6-diCH2)), the IC50 is less than 10 nM.
